This note sets out measurements from patent publication US12528812B2 (Genentech, Inc., priority 2020, dated 2026).

The Ki is the equilibrium dissociation constant of an inhibitor or competing ligand from its target.

Assay [1] concerns the target T1, recombinant human JAK1 kinase domain protein (Residues 854-1154) (Homo sapiens, UniProt P23458).
T1 construct: human JAK1 kinase domain protein (Residues 854-1154); purchased Proteros Biostructures GmbH (Martinsried, Germany); host or cells: insect cells
The experiment in a line: JAK1 biochemical assay (LabChip mobility shift, Ki). Particulars: read-out: Biochem JAK1 Ki.

Assay [2] has as its system IL-13-stimulated STAT6 phosphorylation in human lung bronchial epithelial BEAS-2B cell line. The experiment in a line: P-STAT6 BEAS-2B + IL-13 cell assay. The format is cell-based. Particulars: Homo sapiens, BEAS-2B, BEAS2B cells, IL13 stimulation; read-out: Cellular JAK1 PSTAT6 BEAS2B + IL13. As to the method: In order to study the effect of JAK1 inhibitors in a cell line that is relevant to the cell biology of human asthma, an IL-13-stimulated STAT6 phosphorylation assay in the human lung bronchial epithelial BEAS-2B cell line was developed.
BEAS-2B cells (ATCC′ CRL-9609™) were grown in Bronchial Epithelial Growth Medium (BEGM) (Lonza Catalog No. CC-3170; Walkersville, MD; or PromoCell Catalog No. C-21060; Heidelberg, Germany). Test compound stock solutions (0.5 mM in DMSO) were serially diluted 1:2 in DMSO to generate a 10-point concentration curve (at 500× test concentration), which was further diluted by a 50-fold dilution step in BEGM to generate a 10× concentration curve (in 2% DMSO). Cells were plated at 100,000 cells/well in 200 μL of BEGM in 96-well plates and incubated for 48 hours at 37° C. in a humidified incubator. Medium was aspirated from the cells and replaced with 70 μL of fresh BEGM. Diluted test compound (10 μL; or 2% DMSO in assay medium) was added to the cells, and the plates were incubated for 1 hour at 37° C. in a humidified incubator. Twenty μL of 250 ng/mL human recombinant IL-13 (Bio Techne Catalog No. 213-ILB) was then added to the cells and incubated for 15 minutes at 37° C. Medium was aspirated from the cells and 60 μL of ice-cold 1× cell lysis buffer (Cell Signaling Technologies; Catalog No. 9803S) containing 1 mM PMSF was added to the cells. Assay plates were incubated at −80° C. for at least 1 hour. P-STAT6 was measured by coating GAR plates (MSD; Catalog No. L45RA-1) with rabbit anti-human total STAT6 antibody (Cell Signaling Technologies; Catalog No. 9362S), incubating the cell lysates in the coated plates overnight at 4° C., and then detecting with mouse anti-phospho-STAT6 (Tyr641) Clone 16E12 antibody (Millipore; Catalog No. 05-590, custom labeled by MSD with SULFO-tag) using standard MSD plate processing, washing, and detection protocols. Plates were read on the MESO SECTOR 5600.
Data analysis was performed by subtracting negative control values from all wells and determining percent of control using the positive control values; the IC50 was determined with a four-parameter logistic fit model as shown in Equation 4.

Assay [3] deals with Recombinant human JAK2 kinase domain protein (Residues 812-1132) (Homo sapiens, UniProt O60674). The experiment in a line: JAK2 biochemical assay (LabChip mobility shift, Ki). The settings on record: Biochem JAK2 Ki.
Sequence of Recombinant human JAK2 kinase domain protein (Residues 812-1132) (O60674 812-1132): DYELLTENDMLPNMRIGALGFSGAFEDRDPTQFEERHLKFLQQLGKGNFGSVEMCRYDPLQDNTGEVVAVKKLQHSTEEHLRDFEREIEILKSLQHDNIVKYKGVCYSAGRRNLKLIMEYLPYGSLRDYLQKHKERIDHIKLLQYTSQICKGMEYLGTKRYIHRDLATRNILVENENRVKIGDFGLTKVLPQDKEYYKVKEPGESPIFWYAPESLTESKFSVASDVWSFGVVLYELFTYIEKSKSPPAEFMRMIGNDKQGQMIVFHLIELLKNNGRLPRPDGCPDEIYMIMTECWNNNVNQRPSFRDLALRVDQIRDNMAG

T1 sequence (P23458 854-1154): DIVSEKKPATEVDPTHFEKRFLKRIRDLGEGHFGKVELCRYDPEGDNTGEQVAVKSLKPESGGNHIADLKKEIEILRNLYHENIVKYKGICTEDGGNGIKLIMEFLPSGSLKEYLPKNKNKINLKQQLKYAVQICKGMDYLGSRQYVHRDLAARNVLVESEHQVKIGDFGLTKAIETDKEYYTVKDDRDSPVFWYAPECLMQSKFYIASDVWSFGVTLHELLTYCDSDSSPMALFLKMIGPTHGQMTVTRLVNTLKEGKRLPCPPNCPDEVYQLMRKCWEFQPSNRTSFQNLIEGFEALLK

Consider `CN1CCC[C@H]1Cn1cc(NC(=O)c2cnn3cccnc23)c(-c2cc(Oc3ccccc3)ccc2OC(F)F)n1` (racemic) [Example 31, N-[3-[2-(difluoromethoxy)-5-phenoxy-phenyl]-1-[[rac-(2R)-1-methylpyrrolidin-2-yl]methyl]pyrazol-4-yl]pyrazolo[1,5-a]pyrimidine-3-carboxamide], for which the Ki was 0.37 nM in assay [1] and 0.86 nM in assay [3]. In assay [2], the IC50 came to 9.2 nM.
For `CN1CCC[C@H]1Cn1cc(NC(=O)c2cnn3cccnc23)c(-c2cc(Oc3cccc(CC#N)c3)ccc2OC(F)F)n1` (racemic) [Example 37, N-[3-[5-[3-(cyanomethyl)phenoxy]-2-(difluoromethoxy)phenyl]-1-[[rac-(2R)-1-methylpyrrolidin-2-yl]methyl]pyrazol-4-yl]pyrazolo[1,5-a]pyrimidine-3-carboxamide], in that order: 0.55 nM, 1.4 nM and 16 nM.
For `Cn1cc(NC(=O)c2cnn3cccnc23)c(-c2cc(Oc3cccc(C4CNCCO4)c3)ccc2OC(F)F)n1` (racemic) [Example 38, N-[3-[2-(difluoromethoxy)-5-[3-[rac-(2R)-morpholin-2-yl]phenoxy]phenyl]-1-methyl-pyrazol-4-yl]pyrazolo[1,5-a]pyrimidine-3-carboxamide], in that order: 0.52 nM, 0.38 nM and 22 nM.
For `CN1CCCC1Cn1cc(NC(=O)c2cnn3cccnc23)c(-c2cc(Oc3cccc(C4CNCCO4)c3)ccc2OC(F)F)n1` (racemic) [Example 41, N-[3-[2-(difluoromethoxy)-5-(3-morpholin-2-ylphenoxy)phenyl]-1-[[rac-(2R)-1-methylpyrrolidin-2-yl]methyl]pyrazol-4-yl]pyrazolo[1,5-a]pyrimidine-3-carboxamide], in that order: 1.4 nM, 4.4 nM and 210 nM.
As to `Cn1cc(NC(=O)c2cnn3cccnc23)c(-c2cc(Oc3cccc([C@H]4CNCCO4)c3)ccc2OC(F)F)n1` (racemic) [Example 42, N-[3-[2-(difluoromethoxy)-5-[3-[rac-(2S)-morpholin-2-yl]phenoxy]phenyl]-1-methyl-pyrazol-4-yl]pyrazolo[1,5-a]pyrimidine-3-carboxamide], the Ki in assay [1] came to 0.37 nM; in assay [3], 0.39 nM. Moreover, the IC50 in assay [2] was 11 nM.
In the same order, the values of `Cc1ccc(Oc2ccc(OC(F)F)c(-c3nn(CC4CCCN4C)cc3NC(=O)c3cnn4cccnc34)c2)cc1C(=O)N(C)C` (racemic) [Example 51, N-[3-[2-(difluoromethoxy)-5-[3-(dimethylcarbamoyl)-4-methyl-phenoxy]phenyl]-1-[[rac-(2R)-1-methylpyrrolidin-2-yl]methyl]pyrazol-4-yl]pyrazolo[1,5-a]pyrimidine-3-carboxamide] are 1.3 nM, 1.8 nM and 45 nM.
For `Cc1ccc(Oc2ccc(OC(F)F)c(-c3nn(CCN[C@H]4CCOC4)cc3NC(=O)c3cnn4cccnc34)c2)cc1C(=O)N(C)C` (racemic) [Example 58, N-[3-[2-(difluoromethoxy)-5-[3-(dimethylcarbamoyl)-4-methyl-phenoxy]phenyl]-1-[2-[[rac-(3R)-tetrahydrofuran-3-yl]amino]ethyl]pyrazol-4-yl]pyrazolo[1,5-a]pyrimidine-3-carboxamide], in that order: 1.2 nM, 0.7 nM and 33 nM.
As to `Cc1ccc(Oc2ccc(OC(F)F)c(-c3nn(CCN[C@H]4CCCOC4)cc3NC(=O)c3cnn4cccnc34)c2)cc1C(=O)N(C)C` (racemic) [Example 83, N-[3-[2-(difluoromethoxy)-5-[3-(dimethylcarbamoyl)-4-methyl-phenoxy]phenyl]-1-[2-[[rac-(3R)-tetrahydropyran-3-yl]amino]ethyl]pyrazol-4-yl]pyrazolo[1,5-a]pyrimidine-3-carboxamide], the Ki in assay [1] came to 1.7 nM; in assay [3], 1 nM. For the same compound, in assay [2], the IC50 was found to be 150 nM.
In the same order, the values of `Cc1ccc(Oc2ccc(OC(F)F)c(-c3nn(C[C@@H]4C[C@@H](F)CN4C)cc3NC(=O)c3cnn4cccnc34)c2)cc1C(=O)N(C)C` (racemic) [Example 89, N-[3-[2-(difluoromethoxy)-5-[3-(dimethylcarbamoyl)-4-methyl-phenoxy]phenyl]-1-[[rac-(2R,4S)-4-fluoro-l-methyl-pyrrolidin-2-yl]methyl]pyrazol-4-yl]pyrazolo[1,5-a]pyrimidine-3-carboxamide] are 1.2 nM, 1.3 nM and 120 nM.
For `Cn1cc(NC(=O)c2cnn3cccnc23)c(-c2cc(Oc3cccc(CN4CCOC[C@@H]4CO)c3)ccc2OC(F)F)n1` (racemic) [Example 93, N-[3-[2-(difluoromethoxy)-5-[3-[[rac-(3R)-3-(hydroxymethyl)morpholin-4-yl]methyl]phenoxy]phenyl]-1-methyl-pyrazol-4-yl]pyrazolo[1,5-a]pyrimidine-3-carboxamide], in that order: 1.2 nM, 0.65 nM and 89 nM.
For `C[C@H](O)Cn1cc(Oc2ccc(OC(F)F)c(-c3nn(C)cc3NC(=O)c3cnn4cccnc34)c2)cn1` (racemic) [Example 120, N-[3-[2-(difluoromethoxy)-5-[1-[rac-(2R)-2-hydroxypropyl]pyrazol-4-yl]oxy-phenyl]-1-methyl-pyrazol-4-yl]pyrazolo[1,5-a]pyrimidine-3-carboxamide], in that order: 0.35 nM, 0.24 nM and 19 nM.
With `O=C(Nc1c[nH]nc1-c1cc(Oc2ccccc2)ccc1OC(F)F)c1cnn2cccnc12` [Example 1, N-[3-[2-(difluoromethoxy)-5-phenoxy-phenyl]-1H-pyrazol-4-yl]pyrazolo[1,5-a]pyrimidine-3-carboxamide], the figures for the inhibition constant Ki in assay [1] and in assay [3] were 0.18 nM and 0.096 nM, respectively.
In the same order, the values of `Cn1cc(NC(=O)c2cnn3cccnc23)c(-c2cc(Oc3cnn(CCN4CCOCC4)c3)ccc2OC(F)F)n1` [Example 68, N-[3-[2-(difluoromethoxy)-5-[1-(2-morpholinoethyl)pyrazol-4-yl]oxy-phenyl]-1-methyl-pyrazol-4-yl]pyrazolo[1,5-a]pyrimidine-3-carboxamide] are 6.2 nM and 2.9 nM.
Take `CNC(=O)c1cncc(Oc2ccc(OC(F)F)c(-c3nn(C)cc3NC(=O)c3cnn4cccnc34)c2)c1` [Example 158, N-[3-[2-(difluoromethoxy)-5-[[5-(methylcarbamoyl)-3-pyridyl]oxy]phenyl]-1-methyl-pyrazol-4-yl]pyrazolo[1,5-a]pyrimidine-3-carboxamide]: the Ki in assay [1] is 0.62 nM. Moreover, in assay [2], the IC50 turned out to be 37 nM.
On to `CCCN(CCCO)Cc1ccc(Oc2ccc(OC(F)F)c(-c3nn(C)cc3NC(=O)c3cnn4cccnc34)c2)cc1` [Example 161, N-(3-(2-(difluoromethoxy)-5-(4-(((3-hydroxypropyl) (propyl)amino)methyl)phenoxy)phenyl)-1-methyl-1H-pyrazol-4-yl)pyrazolo[1,5-a]pyrimidine-3-carboxamide], for which the Ki was found to be 6 nM in assay [1] and 2.2 nM in assay [3].
For `Cn1cc(NC(=O)c2cnn3cccnc23)c(-c2cc(Oc3cnn(CCBr)c3)ccc2OC(F)F)n1` [Example 214, N-[3-[5-[1-(2-bromoethyl)pyrazol-4-yl]oxy-2-(difluoromethoxy)phenyl]-1-methyl-pyrazol-4-yl]pyrazolo[1,5-a]pyrimidine-3-carboxamide], in that order: 1.1 nM and 0.68 nM.
In the same order, the values of `Cn1cc(NC(=O)c2cnn3cccnc23)c(-c2cc(Oc3cnn(CCC4CO4)c3)ccc2OC(F)F)n1` (stereo not drawn) [Example 215, N-[3-[2-(difluoromethoxy)-5-[1-[2-(oxiran-2-yl)ethyl]pyrazol-4-yl]oxy-phenyl]-1-methyl-pyrazol-4-yl]pyrazolo[1,5-a]pyrimidine-3-carboxamide] are 1.9 nM and 1.1 nM.
